Experimental findings from publication PMC12405493, “Selective ubiquitination of drug-like small molecules by the ubiquitin ligase HUWE1” (Nature Communications, 2025) are described below.

One assay deals with T1, UBA1 (E1) / UBE2L3 (E2) (Homo sapiens, UniProt P22314+P68036).
T1 construct: made in house
Briefly: E1-driven Ub transfer to UBE2L3 (E3-free reaction). The conditions noted are these: Supplementary Fig. 1f, g. In kind it is biochemical. How it is done:
E3-free multi-turnover ubiquitination reactions to monitor E1 and E2 activities contained 1 μM UBA1, 5 μM UBE2L3, 100 μM Ub, 2 mM ATP and 10 mM MgCl2 in 25 mM HEPES (pH 7.4), and 0.2 mM TCEP. Reactions were incubated at 30 °C for 10 min (or otherwise, as specified) and quenched with 50 mM EDTA, followed by the addition of SDS-loading dye. Single-turnover E2~Ub discharge assays were performed similarly to previous studies. In short, 1 μM UBA1, 5 μM UBE2L3, and 100 μM Ub were pre-incubated with 2 mM ATP and 10 mM MgCl2 in 25 mM HEPES (pH 7.4) at 30 °C for 30 min, diluted 4-fold, and quenched with 50 mM EDTA. Thereafter, 1.2 μM of the UBE2L3~Ub product was incubated with 5 μM HUWE1^HECT at 30 °C for 1 min.

The target in assay [1] is T2, HUWE1-HECT-Ub vinylthioether-linked conjugate (Homo sapiens, UniProt Q7Z6Z7).
T2 construct: The preparation of the vinylthioether-linked HUWE1^HECT-Ub complex was also previously described; made in house; host or cells: bacteria (components)
T2 sequence (Q7Z6Z7 4038-4374 limits assumed, other chains not shown): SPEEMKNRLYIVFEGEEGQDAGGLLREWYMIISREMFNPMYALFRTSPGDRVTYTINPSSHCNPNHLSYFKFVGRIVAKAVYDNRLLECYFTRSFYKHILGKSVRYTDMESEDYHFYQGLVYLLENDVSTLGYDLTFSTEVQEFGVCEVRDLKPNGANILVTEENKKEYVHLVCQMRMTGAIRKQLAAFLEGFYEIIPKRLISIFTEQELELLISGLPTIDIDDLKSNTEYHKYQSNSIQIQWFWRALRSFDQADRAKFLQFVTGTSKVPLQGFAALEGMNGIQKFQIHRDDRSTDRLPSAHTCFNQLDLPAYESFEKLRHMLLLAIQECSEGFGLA
Briefly: HDX-MS of HUWE1^HECT~Ub proxy with inhibitors. In kind it is binding. The conditions noted are these: 10-fold molar excess of inhibitor. How it is done:
Two experiments were performed: 50 μM HUWE1^HECT (1) or HUWE1^HECT-Ub conjugate (2) were incubated with 500 μM of BI8626 or BI8622 for 1 h on ice prior HDX-MS. Individual HDX reactions were generated with a 2-arm autosampler (LEAP Technologies) by mixing 6.5 μL sample with 58.5 μL of HDX buffer (20 mM HEPES pH 8.0, 150 mM NaCl, 5 mM DTT) prepared with 99.9% D2O, incubation at 25 °C for various times, before quenching by mixing 55 μL with an equal volume of 400 mM KH2PO4/H3PO4 (pH 2.2) and 2 M guanidine-HCl (precooled at 1 °C). Non-deuterated samples were generated analogously by 10-fold dilution with H2O-based buffer. […] For each protein state and time-point, three individual HDX reactions were measured.
Peptide identification and HDX analysis was performed with ProteinLynx Global SERVER v.3.0.1 (PLGS; Waters) and DynamX v.3.0 (Waters), as described previously. […] Only peptides with an intensity >10,000 counts, ≤ 30 residues, ≥ 2 products with ≥ 0.05 products/residue, ≤ 25 ppm mass error and retention time tolerance of 0.5 min were analysed. […] The maximal deuterium uptake of a given peptide was calculated by the number of residues minus one for the N-terminal residue and minus the number of prolines. […]

Assay [2] addresses T3, HUWE1^FL (substrate MCL1) (Homo sapiens, UniProt Q7Z6Z7).
T3 construct: made in house; host or cells: HEK293T (transient transfection, anti-Flag purification, SEC)
Description: HUWE1^FL-driven MCL1 ubiquitination reactions. In kind it is biochemical. The conditions noted are these: varying concentrations. The method, then: HUWE1^HECT multi-turnover ubiquitination reactions were performed for 30 minutes (unless stated otherwise) with 200 nM UBA1, 5 μM UBE2L3 or UBE2D3 (as specified), 1 μM HUWE1^HECT and 30 μM Ub in 25 mM HEPES (pH 7.5), 100 mM NaCl, 3 mM MgCl2, and 0.5 mM TCEP. HUWE1^FL multi-turnover ubiquitination reactions included 50 nM UBA1, 2.5 μM UBE2L3, 0.05 μM HUWE1^FL, 0.5 μM MCL1 (or 0.5 μM H2B or 1 μM FOXP3) and 20 μM Ub in 20 mM HEPES (pH 7.5), 100 mM NaCl, 3 mM MgCl2, and 0.5 mM TCEP. All multi-turnover reactions were started by the addition of 1 mM ATP, incubated at 30 °C, quenched with SDS-loading dye. If not stated otherwise, HUWE1^FLautoubiquitination reactions were incubated for 20 minutes. Substrate ubiquitination reactions with MCL1 or H2B were incubated for 10 and 20 min, respectively; those with FOXP3 for 30 min. Those reactions that were monitored by fluorescence contained a fluorescent Ub tracer (IRDye 800CW maleimide; LI-COR)[55] and were monitored using an Odyssey CLx scanner (LI-COR), followed by Coomassie staining. In the fluorescence images, only those marker bands are labeled (in kDa) that are visible by fluorescence; all marker bands are labeled in the Coomassie-stained images. Statistical analyses were performed with Prism 9 v.9.3.1 (GraphPad).

T3 sequence (Q7Z6Z7 whole entry): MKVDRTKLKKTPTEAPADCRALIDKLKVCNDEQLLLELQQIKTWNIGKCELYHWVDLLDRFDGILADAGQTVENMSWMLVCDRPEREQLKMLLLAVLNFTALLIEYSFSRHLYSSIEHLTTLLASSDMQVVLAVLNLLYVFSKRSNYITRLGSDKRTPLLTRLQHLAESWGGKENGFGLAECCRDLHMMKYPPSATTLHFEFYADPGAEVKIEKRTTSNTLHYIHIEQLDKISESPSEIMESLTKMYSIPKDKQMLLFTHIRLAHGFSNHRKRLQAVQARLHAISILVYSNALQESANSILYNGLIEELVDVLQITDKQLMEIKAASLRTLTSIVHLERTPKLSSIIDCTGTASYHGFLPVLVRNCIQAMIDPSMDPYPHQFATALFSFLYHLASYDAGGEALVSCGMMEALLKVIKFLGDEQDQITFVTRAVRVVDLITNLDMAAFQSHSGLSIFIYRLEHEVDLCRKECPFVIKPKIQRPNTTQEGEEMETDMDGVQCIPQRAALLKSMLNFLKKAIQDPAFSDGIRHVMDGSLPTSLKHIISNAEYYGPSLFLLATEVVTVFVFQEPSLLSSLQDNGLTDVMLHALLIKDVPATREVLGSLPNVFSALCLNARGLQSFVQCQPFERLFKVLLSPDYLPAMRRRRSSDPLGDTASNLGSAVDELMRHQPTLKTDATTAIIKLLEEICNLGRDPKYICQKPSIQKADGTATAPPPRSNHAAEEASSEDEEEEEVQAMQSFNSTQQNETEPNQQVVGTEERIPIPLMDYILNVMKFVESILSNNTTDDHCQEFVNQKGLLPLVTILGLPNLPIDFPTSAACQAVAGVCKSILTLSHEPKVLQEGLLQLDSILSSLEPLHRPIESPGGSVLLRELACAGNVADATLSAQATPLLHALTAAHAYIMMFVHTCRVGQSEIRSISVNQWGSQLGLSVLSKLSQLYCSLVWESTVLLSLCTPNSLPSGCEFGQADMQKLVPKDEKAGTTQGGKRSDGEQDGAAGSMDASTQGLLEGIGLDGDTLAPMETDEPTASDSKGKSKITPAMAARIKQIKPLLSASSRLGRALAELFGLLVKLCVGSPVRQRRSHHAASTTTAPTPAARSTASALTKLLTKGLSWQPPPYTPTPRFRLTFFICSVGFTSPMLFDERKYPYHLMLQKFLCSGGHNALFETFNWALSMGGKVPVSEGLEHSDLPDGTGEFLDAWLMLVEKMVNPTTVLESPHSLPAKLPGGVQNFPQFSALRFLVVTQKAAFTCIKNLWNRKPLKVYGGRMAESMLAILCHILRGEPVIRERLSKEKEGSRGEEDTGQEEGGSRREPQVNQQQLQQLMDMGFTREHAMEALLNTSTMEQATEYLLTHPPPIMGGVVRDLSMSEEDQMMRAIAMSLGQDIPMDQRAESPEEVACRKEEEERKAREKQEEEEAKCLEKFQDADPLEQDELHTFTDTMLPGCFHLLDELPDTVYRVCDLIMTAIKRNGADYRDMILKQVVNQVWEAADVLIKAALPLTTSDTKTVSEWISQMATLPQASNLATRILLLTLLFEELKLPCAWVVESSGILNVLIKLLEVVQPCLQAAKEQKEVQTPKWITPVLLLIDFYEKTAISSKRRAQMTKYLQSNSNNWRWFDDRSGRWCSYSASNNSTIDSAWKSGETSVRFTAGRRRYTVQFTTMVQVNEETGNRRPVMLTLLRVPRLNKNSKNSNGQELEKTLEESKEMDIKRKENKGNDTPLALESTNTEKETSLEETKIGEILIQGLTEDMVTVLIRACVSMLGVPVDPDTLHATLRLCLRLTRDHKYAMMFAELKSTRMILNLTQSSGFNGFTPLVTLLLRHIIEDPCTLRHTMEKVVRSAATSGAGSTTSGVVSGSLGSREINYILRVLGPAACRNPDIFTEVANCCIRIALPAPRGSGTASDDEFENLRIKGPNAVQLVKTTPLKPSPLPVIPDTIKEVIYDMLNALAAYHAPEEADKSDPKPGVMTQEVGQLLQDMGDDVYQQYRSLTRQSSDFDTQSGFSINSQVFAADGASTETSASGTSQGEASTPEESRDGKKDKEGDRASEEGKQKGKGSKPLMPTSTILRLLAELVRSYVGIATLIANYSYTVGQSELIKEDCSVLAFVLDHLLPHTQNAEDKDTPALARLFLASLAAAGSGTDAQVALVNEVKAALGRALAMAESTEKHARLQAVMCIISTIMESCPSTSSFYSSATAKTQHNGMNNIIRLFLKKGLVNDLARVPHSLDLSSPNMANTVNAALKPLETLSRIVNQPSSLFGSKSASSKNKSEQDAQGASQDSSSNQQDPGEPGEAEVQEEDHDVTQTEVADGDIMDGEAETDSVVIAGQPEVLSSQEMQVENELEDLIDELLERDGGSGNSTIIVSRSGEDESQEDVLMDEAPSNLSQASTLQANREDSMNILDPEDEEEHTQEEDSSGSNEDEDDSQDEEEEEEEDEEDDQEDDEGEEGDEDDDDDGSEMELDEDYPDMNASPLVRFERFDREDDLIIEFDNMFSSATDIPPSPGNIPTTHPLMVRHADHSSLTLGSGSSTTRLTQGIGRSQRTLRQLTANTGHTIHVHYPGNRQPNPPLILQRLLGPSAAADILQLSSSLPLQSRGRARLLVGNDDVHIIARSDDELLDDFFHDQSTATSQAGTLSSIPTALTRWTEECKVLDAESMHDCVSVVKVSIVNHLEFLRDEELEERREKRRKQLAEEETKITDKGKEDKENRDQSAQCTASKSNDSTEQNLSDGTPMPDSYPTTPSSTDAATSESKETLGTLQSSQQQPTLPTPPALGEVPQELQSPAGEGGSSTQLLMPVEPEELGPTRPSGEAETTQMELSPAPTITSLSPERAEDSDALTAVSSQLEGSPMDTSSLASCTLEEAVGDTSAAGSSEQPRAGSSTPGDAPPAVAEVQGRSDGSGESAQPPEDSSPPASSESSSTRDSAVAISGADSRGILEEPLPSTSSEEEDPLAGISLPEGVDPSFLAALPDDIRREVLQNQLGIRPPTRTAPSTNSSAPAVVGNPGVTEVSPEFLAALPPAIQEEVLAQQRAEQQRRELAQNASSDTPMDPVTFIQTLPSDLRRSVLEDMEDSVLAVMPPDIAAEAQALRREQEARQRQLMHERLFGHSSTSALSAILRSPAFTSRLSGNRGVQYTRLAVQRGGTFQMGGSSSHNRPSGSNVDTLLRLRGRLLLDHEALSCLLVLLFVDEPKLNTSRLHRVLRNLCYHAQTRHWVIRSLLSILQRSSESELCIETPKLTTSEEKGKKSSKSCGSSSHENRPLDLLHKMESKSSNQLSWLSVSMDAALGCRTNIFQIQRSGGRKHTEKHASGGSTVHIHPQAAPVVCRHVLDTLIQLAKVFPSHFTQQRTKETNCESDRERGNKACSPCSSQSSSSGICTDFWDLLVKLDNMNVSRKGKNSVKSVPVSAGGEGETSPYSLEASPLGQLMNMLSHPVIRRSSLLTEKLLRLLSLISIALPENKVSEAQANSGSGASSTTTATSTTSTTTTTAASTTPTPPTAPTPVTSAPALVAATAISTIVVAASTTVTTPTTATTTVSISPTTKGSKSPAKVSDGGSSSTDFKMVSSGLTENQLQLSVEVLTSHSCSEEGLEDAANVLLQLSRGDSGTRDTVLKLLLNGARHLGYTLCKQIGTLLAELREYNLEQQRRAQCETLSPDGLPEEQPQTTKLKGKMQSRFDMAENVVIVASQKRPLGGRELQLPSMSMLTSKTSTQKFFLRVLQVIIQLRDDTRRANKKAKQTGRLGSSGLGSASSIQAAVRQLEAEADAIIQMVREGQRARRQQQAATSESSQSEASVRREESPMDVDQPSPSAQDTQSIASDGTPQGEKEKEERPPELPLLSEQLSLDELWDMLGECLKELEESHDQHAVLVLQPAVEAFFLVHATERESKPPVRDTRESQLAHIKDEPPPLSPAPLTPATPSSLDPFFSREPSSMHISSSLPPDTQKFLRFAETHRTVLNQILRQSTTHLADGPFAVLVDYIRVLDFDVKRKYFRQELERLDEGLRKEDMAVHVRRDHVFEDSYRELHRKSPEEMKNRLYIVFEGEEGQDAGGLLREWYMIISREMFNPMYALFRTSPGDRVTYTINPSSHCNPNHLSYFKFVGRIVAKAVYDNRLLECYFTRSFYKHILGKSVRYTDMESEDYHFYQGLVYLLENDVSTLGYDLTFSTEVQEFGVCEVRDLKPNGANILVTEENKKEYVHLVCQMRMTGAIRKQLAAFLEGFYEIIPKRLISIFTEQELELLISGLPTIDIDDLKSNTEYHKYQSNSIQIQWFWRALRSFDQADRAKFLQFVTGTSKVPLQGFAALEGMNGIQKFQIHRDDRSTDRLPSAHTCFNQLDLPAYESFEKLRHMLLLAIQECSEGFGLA

`Cc1c(C(=O)Nc2ccc(CN)cc2)ncnc1N1CCC(C#N)(c2ccccc2)CC1` [BI8622]: on UBA1 (E1) / UBE2L3 (E2), the “Ub transfer from the E1 to the E2” value was “nor do they perturb the preceding Ub transfer from the E1 to the E2”. Besides, the “Binding to HUWE1^HECT~Ub proxy by HDX-MS” value in assay [1] is reported as “did not provide evidence of binding”. For the same compound, the “Inhibition of HUWE1^FL-driven MCL1 ubiquitination” value in assay [2] is listed as “inhibit the protein ubiquitination activity of the ligase in a dose-dependent manner”.
The matching figures for `NCc1cccc(CNc2ncnc3c(N4CCN(Cc5ccccc5)CC4)ncnc23)c1` [BI8626]: “nor do they perturb the preceding Ub transfer from the E1 to the E2”, “did not provide evidence of binding” and “inhibit the protein ubiquitination activity of the ligase in a dose-dependent manner”.
